Assay results: ChEMBL document CHEMBL5113520, “From a Cone Snail Toxin to a Competitive MC4R Antagonist” (J Med Chem, 2022)
Where a SMILES comes first, the peptide text is derived from it. Bridges are numbered along the chain shown (N, C = ends). The star is where a group is joined. Carbamoyl = NC(=O)*

What was measured:
Assay type in all cases: cell-based
Melanocortin receptor 3 = Melanocortin receptor 3 (Homo sapiens, UniProt P41968); experiment: Displacement of [125I]-NDP-alpha-MSH from human MC3R expressed in HEK293 cells by Topcount beta counter analysis
Chain of Melanocortin receptor 3 (P41968 whole entry): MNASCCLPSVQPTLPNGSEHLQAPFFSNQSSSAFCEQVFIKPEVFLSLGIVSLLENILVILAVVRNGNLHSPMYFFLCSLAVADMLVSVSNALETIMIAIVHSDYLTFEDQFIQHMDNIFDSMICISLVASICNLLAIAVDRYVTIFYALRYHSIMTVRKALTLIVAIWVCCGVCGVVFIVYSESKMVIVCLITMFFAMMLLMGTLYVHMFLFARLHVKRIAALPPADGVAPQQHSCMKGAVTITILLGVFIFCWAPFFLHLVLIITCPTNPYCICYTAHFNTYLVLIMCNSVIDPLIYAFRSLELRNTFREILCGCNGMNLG

Melanocortin receptor 5 = Melanocortin receptor 5 (Homo sapiens, UniProt P33032); experiment: Displacement of [125I]-NDP-alpha-MSH from human MC5R expressed in CHO cells by Topcount beta counter analysis
Chain of Melanocortin receptor 5 (P33032 whole entry): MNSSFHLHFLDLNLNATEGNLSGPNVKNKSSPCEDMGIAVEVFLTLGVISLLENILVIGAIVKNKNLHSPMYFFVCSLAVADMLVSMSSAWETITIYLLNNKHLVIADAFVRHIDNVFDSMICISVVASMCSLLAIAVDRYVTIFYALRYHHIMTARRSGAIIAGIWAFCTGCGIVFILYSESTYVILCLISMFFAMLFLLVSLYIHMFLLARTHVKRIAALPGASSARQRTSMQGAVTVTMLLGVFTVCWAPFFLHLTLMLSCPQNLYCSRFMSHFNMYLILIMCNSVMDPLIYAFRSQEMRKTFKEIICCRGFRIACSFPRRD

Melanocortin receptor 4 = Melanocortin receptor 4 (Homo sapiens, UniProt P32245); experiment: Displacement of [125I]-NDP-alpha-MSH from human MC4R expressed in CHO cells by Topcount beta counter analysis
Chain of Melanocortin receptor 4 (P32245 whole entry): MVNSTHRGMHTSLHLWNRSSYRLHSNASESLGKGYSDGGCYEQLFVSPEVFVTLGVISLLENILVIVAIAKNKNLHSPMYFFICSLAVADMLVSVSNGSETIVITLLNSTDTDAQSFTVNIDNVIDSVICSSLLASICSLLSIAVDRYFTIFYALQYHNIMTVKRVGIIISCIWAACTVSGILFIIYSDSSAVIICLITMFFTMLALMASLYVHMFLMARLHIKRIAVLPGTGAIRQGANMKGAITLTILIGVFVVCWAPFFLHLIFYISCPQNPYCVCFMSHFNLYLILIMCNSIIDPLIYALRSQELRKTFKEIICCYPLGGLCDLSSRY

[1] = target: Melanocyte-stimulating hormone receptor (Homo sapiens, UniProt Q01726); experiment: Displacement of [125I]-NDP-alpha-MSH from human MC1R expressed in CHO cells by Topcount beta counter analysis
Chain of Melanocyte-stimulating hormone receptor (Q01726 whole entry): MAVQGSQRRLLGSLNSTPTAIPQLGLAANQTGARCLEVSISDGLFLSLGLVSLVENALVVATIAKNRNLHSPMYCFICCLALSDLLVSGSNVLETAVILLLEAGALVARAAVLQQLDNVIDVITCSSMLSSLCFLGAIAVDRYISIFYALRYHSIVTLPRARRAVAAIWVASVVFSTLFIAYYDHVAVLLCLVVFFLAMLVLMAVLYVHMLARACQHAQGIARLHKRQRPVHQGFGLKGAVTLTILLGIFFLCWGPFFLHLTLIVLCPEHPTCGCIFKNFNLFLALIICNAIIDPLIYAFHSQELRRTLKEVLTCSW

Row | Structure (SMILES) | Ki (Melanocortin receptor 3; read-out: pKi (converted)) [nM] | Ki (Melanocortin receptor 5; read-out: pKi (converted)) [nM] | Ki (Melanocortin receptor 4; read-out: pKi (converted)) [nM] | Ki ([1]; read-out: pKi (converted)) [nM] | Ki (Melanocortin receptor 3; read-out: Ki) [nM] | Ki (Melanocortin receptor 5; read-out: Ki) [nM] | Ki (Melanocortin receptor 4; read-out: Ki) [nM] | Ki ([1]; read-out: Ki) [nM]
1 | CC(C)C[C@@H]1NC(=O)[C@H](CCC(N)=O)NC(=O)[C@@H](NC(=O)[C@H](Cc2ccc(O)cc2)NC(=O)[C@H](Cc2c[nH]cn2)NC(=O)[C@H](Cc2ccccc2)NC(=O)[C@@H](N)CC(C)C)CSSC[C@@H](C(=O)N[C@@H](CCC(N)=O)C(=O)N[C@@H](Cc2ccccc2)C(=O)N[C@@H](CCCCN)C(=O)N[C@@H](CC(C)C)C(=O)N[C@@H](CCCNC(=N)N)C(=O)N2CCC[C@H]2C(=O)N2CCC[C@H]2C(=O)O)NC(=O)[C@H](Cc2ccccc2)NC(=O)[C@H](CCCCN)NC(=O)CNC(=O)[C@H](CCCCN)NC(=O)[C@H](Cc2ccccc2)NC(=O)CNC(=O)[C@@H]2CCCN2C(=O)[C@@H]2CCCN2C(=O)[C@H](CC(C)C)NC(=O)[C@H](CCC(N)=O)NC1=O (H-LFHYCQLQLPPGFKGKFCQFKLRPP-OH; disulfide 5-18) | 275 | 117 | 93.3 | 398 | – | – | – | –
2 | CC(C)C[C@H](NC(=O)[C@H](CCCCN)NC(=O)[C@H](Cc1ccccc1)NC(=O)[C@H](CCC(N)=O)NC(=O)[C@@H]1CSSC[C@H](NC(=O)[C@@H](Cc2ccc(O)cc2)NC(=O)[C@H](Cc2c[nH]cn2)NC(=O)[C@H](Cc2ccccc2)NC(=O)[C@@H](N)CC(C)C)C(=O)N[C@@H](CCC(N)=O)C(=O)N[C@@H](CCCCN)C(=O)N[C@@H](CCC(N)=O)C(=O)N[C@@H](CCCCN)C(=O)N2CCC[C@H]2C(=O)N2CCC[C@H]2C(=O)NCC(=O)N[C@@H](Cc2ccccc2)C(=O)N[C@@H](CCCCN)C(=O)NCC(=O)N[C@@H](CCCCN)C(=O)N[C@@H](Cc2ccccc2)C(=O)N1)C(=O)N[C@@H](CCCNC(=N)N)C(=O)N1CCC[C@H]1C(=O)N1CCC[C@H]1C(=O)O | 30.9 | 25.7 | 6.92 | 85.1 | – | – | – | –
3 | CC(C)C[C@H](NC(=O)[C@H](CCCCN)NC(=O)[C@H](Cc1ccccc1)NC(=O)[C@H](CCC(N)=O)NC(=O)[C@@H]1CSSC[C@H](NC(=O)[C@H](Cc2ccc(O)cc2)NC(=O)[C@H](Cc2c[nH]cn2)NC(=O)[C@H](Cc2ccccc2)NC(=O)[C@@H](N)CC(C)C)C(=O)N[C@@H](CCC(N)=O)C(=O)N[C@H]2CSSC[C@H](NC(=O)[C@H](CCC(N)=O)NC2=O)C(=O)N2CCC[C@H]2C(=O)N2CCC[C@H]2C(=O)NCC(=O)N[C@@H](Cc2ccccc2)C(=O)N[C@@H](CCCCN)C(=O)NCC(=O)N[C@@H](CCCCN)C(=O)N[C@@H](Cc2ccccc2)C(=O)N1)C(=O)N[C@@H](CCCNC(=N)N)C(=O)N1CCC[C@H]1C(=O)N1CCC[C@H]1C(=O)O (H-LFHYCQCQCPPGFKGKFCQFKLRPP-OH; disulfide 5-18, 7-9) | 97.7 | 28.8 | 43.7 | 490 | 110 | 41 | 48 | 554
4 | CC(C)C[C@H](NC(=O)[C@H](CCCCN)NC(=O)[C@H](Cc1ccccc1)NC(=O)[C@H](CCC(N)=O)NC(=O)[C@@H]1CSSC[C@@H]2NC(=O)[C@H](CCC(N)=O)NC(=O)[C@@H](NC(=O)[C@H](Cc3ccc(O)cc3)NC(=O)[C@H](Cc3c[nH]cn3)NC(=O)[C@H](Cc3ccccc3)NC(=O)[C@@H](N)CC(C)C)CSSC[C@H](NC(=O)[C@H](CCC(N)=O)NC2=O)C(=O)N2CCC[C@H]2C(=O)N2CCC[C@H]2C(=O)NCC(=O)N[C@@H](Cc2ccccc2)C(=O)N[C@@H](CCCCN)C(=O)NCC(=O)N[C@@H](CCCCN)C(=O)N[C@@H](Cc2ccccc2)C(=O)N1)C(=O)N[C@@H](CCCNC(=N)N)C(=O)N1CCC[C@H]1C(=O)N1CCC[C@H]1C(=O)O (H-LFHYCQCQCPPGFKGKFCQFKLRPP-OH; disulfide 5-9, 7-18) | – | 33.9 | 44.7 | 617 | 90 | 53 | 49 | 549
5 | CC(C)C[C@H](NC(=O)[C@H](CCCCN)NC(=O)[C@H](Cc1ccccc1)NC(=O)[C@H](CCC(N)=O)NC(=O)[C@@H]1CSSC[C@H](NC(=O)[C@H](Cc2ccc(O)cc2)NC(=O)[C@H](Cc2c[nH]cn2)NC(=O)[C@H](Cc2ccccc2)NC(=O)[C@@H](N)CC(C)C)C(=O)N[C@@H](CCC(N)=O)C(=O)N[C@@H](C)C(=O)N[C@@H](CCC(N)=O)C(=O)N[C@@H](C)C(=O)N2CCC[C@H]2C(=O)N2CCC[C@H]2C(=O)NCC(=O)N[C@@H](Cc2ccccc2)C(=O)N[C@@H](CCCCN)C(=O)NCC(=O)N[C@@H](CCCCN)C(=O)N[C@@H](Cc2ccccc2)C(=O)N1)C(=O)N[C@@H](CCCNC(=N)N)C(=O)N1CCC[C@H]1C(=O)N1CCC[C@H]1C(=O)O (H-LFHYCQAQAPPGFKGKFCQFKLRPP-OH; disulfide 5-18) | 170 | 195 | 117 | 912 | – | – | – | –
6 | CC(C)C[C@H](NC(=O)[C@H](CCCCN)NC(=O)[C@H](Cc1ccccc1)NC(=O)[C@H](CCC(N)=O)NC(=O)[C@@H]1CSSC[C@H](NC(=O)[C@H](Cc2ccc(O)cc2)NC(=O)[C@H](Cc2c[nH]cn2)NC(=O)[C@H](Cc2ccccc2)NC(=O)[C@@H](N)CC(C)C)C(=O)N[C@@H](CCC(N)=O)C(=O)N[C@@H](C(C)C)C(=O)N[C@@H](CCC(N)=O)C(=O)N[C@@H](C(C)C)C(=O)N2CCC[C@H]2C(=O)N2CCC[C@H]2C(=O)NCC(=O)N[C@@H](Cc2ccccc2)C(=O)N[C@@H](CCCCN)C(=O)NCC(=O)N[C@@H](CCCCN)C(=O)N[C@@H](Cc2ccccc2)C(=O)N1)C(=O)N[C@@H](CCCNC(=N)N)C(=O)N1CCC[C@H]1C(=O)N1CCC[C@H]1C(=O)O (H-LFHYCQVQVPPGFKGKFCQFKLRPP-OH; disulfide 5-18) | 282 | 224 | 60.3 | 724 | – | – | – | –
7 | CC(C)C[C@H](NC(=O)[C@H](CCCCN)NC(=O)[C@H](Cc1ccccc1)NC(=O)[C@H](CCC(N)=O)NC(=O)[C@@H]1CSSC[C@H](NC(=O)[C@H](CCC(N)=O)NC(=O)[C@@H]2CSSC[C@H](NC(=O)[C@H](Cc3ccc(O)cc3)NC(=O)[C@H](Cc3c[nH]cn3)NC(=O)[C@H](Cc3ccccc3)NC(=O)[C@@H](N)CC(C)C)C(=O)N[C@@H](CCC(N)=O)C(=O)N2)C(=O)N2CCC[C@H]2C(=O)N2CCC[C@H]2C(=O)NCC(=O)N[C@@H](Cc2ccccc2)C(=O)N[C@@H](CCCCN)C(=O)NCC(=O)N[C@@H](CCCCN)C(=O)N[C@@H](Cc2ccccc2)C(=O)N1)C(=O)N[C@@H](CCCNC(=N)N)C(=O)N1CCC[C@H]1C(=O)N1CCC[C@H]1C(=O)O (H-LFHYCQCQCPPGFKGKFCQFKLRPP-OH; disulfide 5-7, 9-18) | 69.2 | 28.8 | 41.7 | 513 | 83 | 30 | 45 | 530
8 | CC(C)C[C@H](NC(=O)[C@H](CCCCN)NC(=O)[C@H](Cc1ccccc1)NC(=O)[C@H](CCC(N)=O)NC(=O)[C@H](CSC(N)=O)NC(=O)[C@H](Cc1ccccc1)NC(=O)[C@H](CCCCN)NC(=O)CNC(=O)[C@H](CCCCN)NC(=O)[C@H](Cc1ccccc1)NC(=O)CNC(=O)[C@@H]1CCCN1C(=O)[C@@H]1CCCN1C(=O)[C@H](CCCCN)NC(=O)[C@H](CCC(N)=O)NC(=O)[C@H](CCCCN)NC(=O)[C@H](CCC(N)=O)NC(=O)[C@H](CSC(N)=O)NC(=O)[C@H](Cc1ccc(O)cc1)NC(=O)[C@H](Cc1cnc[nH]1)NC(=O)[C@H](Cc1ccccc1)NC(=O)[C@@H](N)CC(C)C)C(=O)N[C@@H](CCCNC(=N)N)C(=O)N1CCC[C@H]1C(=O)N1CCC[C@H]1C(=O)O (H-LFHYC(Carbamoyl)QKQKPPGFKGKFC(Carbamoyl)QFKLRPP-OH) | 37.2 | 135 | 12.6 | 110 | – | – | – | –
9 | CC(C)C[C@H](NC(=O)[C@H](CCCCN)NC(=O)[C@H](Cc1ccccc1)NC(=O)[C@H](CCC(N)=O)NC(=O)[C@@H]1CSSC[C@H](NC(=O)[C@H](Cc2ccc(O)cc2)NC(=O)[C@H](Cc2c[nH]cn2)NC(=O)[C@H](Cc2ccccc2)NC(=O)[C@@H](N)CC(C)C)C(=O)N[C@@H](CCC(N)=O)C(=O)N[C@@H](CO)C(=O)N[C@@H](CCC(N)=O)C(=O)N[C@@H](CO)C(=O)N2CCC[C@H]2C(=O)N2CCC[C@H]2C(=O)NCC(=O)N[C@@H](Cc2ccccc2)C(=O)N[C@@H](CCCCN)C(=O)NCC(=O)N[C@@H](CCCCN)C(=O)N[C@@H](Cc2ccccc2)C(=O)N1)C(=O)N[C@@H](CCCNC(=N)N)C(=O)N1CCC[C@H]1C(=O)N1CCC[C@H]1C(=O)O (H-LFHYCQSQSPPGFKGKFCQFKLRPP-OH; disulfide 5-18) | 224 | 229 | 67.6 | 776 | – | – | – | –
